Biological target: HSP90 (Homo sapiens (Human), UniProt P07900)
Assay: HSP90 competition binding (fluorescence polarization) assay
Settings: FITC labeled GM, 24 hours at 4° C.
Source text: (b) HSP90 Competition Binding (Fluorescence Polarization) Assay.
A fluorescein isothiocyanate (FITC) labeled GM was purchase from InvivoGen (ant-fgl-1). The interaction between HSP90 and labeled GM forms the basis for the fluorescence polarization assay. A free and fast-tumbling FITC labeled GM emits random light with respect to the plane of polarization plane of excited light, resulting in a lower polarization degree (mP) value. When GM is bound to HSP90, the complex tumble slower and the emitted light is polarized, resulting in a higher mP value. […] The assay buffer contained 20 mM HEPES (pH 7.3), 50 mM KCl, 1 mM DTT, 50 mM MgCl2, 20 mM Na2MoO4, 0.01% NP40 with 0.1 mg/ml bovine gamma-globulin.

- IC50: 100 to 1000 nM
Compound: CC(C)(C)CNCCCn1c(Sc2cc3c(cc2I)OCO3)nc2c(N)nccc21 [Compound 56, 2-(6-iodobenzo[d][1,3]dioxol-5-ylthio)-1-(3-(neopentylamino)propyl)-1H-imidazo[4,5-c]pyridin-4-amine]

Source: patent US10035797B2, “Fused amino pyridine as HSP90 inhibitors” (Curis, Inc., priority 2007, dated 2018)
